# Where “and” joins values, the source holds several entries; their conditions need not be identical. Equal values may be shown once. Entries after “also recorded” stand apart in the source; their conditions may differ.
# Legend:
# [1] = test system: hemichannels and channels formed by connexins and pannexins; experiment: Ethidium uptake in brain slices of PTZ-treated mice, slices treated with Cbx; format: cell-based; conditions: for PTZ-induced ethidium uptake: 20 min on slices, astrocytes, oligodendrocytes and neurons
# Protocol: Adult male mice at 2 months were injected intraperitoneally with PTZ (70 mg/kg) or PBS as a control. After 30 min post injection of the treatment, the action of Cbx at two concentrations was evaluate, 10 μM to block pannexin hemichannels and 100 μM to block both connexin and pannexin-based channels. The mice were sacrificed to extract the brains and obtain coronal slices 400 μm thick. The slices, once stabilized, were treated with Cbx for 20 min and then incubated with the ethidium bromide dye (4 μM) for 10 minutes. Thereafter, the slices were fixed and the immunofluorescence staining process was continued as described above. The mean data of ethidium uptake was normalized to the control condition (dotted line) of each cell type. […] The results obtained were expressed as the mean±SEM. Samples were determined using the Student's t-test (*p<0.05).
# [2] = test system: C57B/6 mice; experiment: Toxicity or lethality of molecule D4, supervision protocol; format: in vivo; conditions: 0.2, 2, 20, 200, 2000 mg/kg i.p.
# Protocol: To evaluate the toxicity or lethality of the molecule D4, Two-month adult mice were injected intraperitoneally in increasing doses (0.2; 2; 20; 200; 2000 mg/kg mouse weight) and were left under observation for 72 hours. After the observation time, the behavioral and physiological aspects of the animals were evaluated based on the Protocol of Supervision according to the Bioethics and Biosafety guidelines of the Faculty of Biological Sciences of the Pontificia Universidad Catolica de Chile that rules in the laboratory. The variables considered included physiological data (weight loss), appearance (posture) and spontaneous behavior (attitude to stimulation). […] In addition, mortality was zero at all concentrations evaluated. The evaluation of mortality of the molecule D4 as an anticonvulsant drug administered in mice prior to the induction of epilepsy with PTZ was zero (Table 3).
# Measurements are performed by trained personnel, who know the basal or usual behavior of the animals under study.
# [3] = test system: connexin hemichannels in brain cells; experiment: Ethidium uptake in brain slices of mice pretreated with D4 before PTZ; format: in vivo; conditions: D4 2 mg/kg i.p. six and one hour before PTZ (70 mg/kg), 30 min post PTZ; microglia, astrocytes and neurons
# Protocol: Immunofluorescence and visualization in confocal microscopy identified cell types.
# The mean data from ethidium uptake was normalized to the control condition (see FIG. 5, dotted line) of each cell type. […] The results obtained were expressed as the mean±SEM. Samples were determined using the Student's t-test (*p<0.05).
# [4] = test system: PTZ-induced seizures in C57BL/6 mice; experiment: PTZ-induced seizures and mortality, anticonvulsant pretreatment; conditions: for Animal Mortality: dead/total animals
# [5] = test system: adult C57BL/6 mice; experiment: PTZ dose response, epileptogenic episodes and mortality in mice; format: in vivo; conditions: for Mortality: dead/total animals
# Protocol: As epileptogenic agent, we used PTZ (Pentylenetetrazole), a GABAA receptor inhibitor widely used in the study and development of anticonvulsant drugs.
# To determine the effective dose, a dose response curve was performed based on the available literature. […]
# [6] = test system: connexin hemichannels in brain cells; experiment: Ethidium uptake in brain slices of PTZ-treated mice (time course); format: in vivo; conditions: PTZ 70 mg/kg i.p.
# Protocol: Adult male mice of 2 months were injected via i.p. with PTZ (70 mg/kg) or phosphate buffered saline (PBS) as a control. Mice were sacrificed after 10, 20 and 30 min post-treatment to extract the brains and generate coronal slices of 400 μm thick using a vibratome. The slices were stabilized for 1 h prior to dye uptake, immersed in ACSF (artificial cerebrospinal fluid), bubbled with 95% O2 and 5% CO2 and at room temperature. Brain slices were incubated with the ethidium bromide dye (Etd, 4 μM) for 10 minutes. Subsequently, the slices were washed and fixed for 1 h with paraformaldehyde (4%). The brain slices were incubated for 40 min with blocking solution (PBS, 0.2% gelatine, 1% triton). Subsequently, the samples were incubated overnight at 4° C. with the primary antibody against molecular markers of the different cell types: anti-mast cell “Transmembrane tyrosine kinase” receptor CD117 (CD117); Integrin αM anti-microglia (CD11b); anti-astrocytes “glial fibrillary acidic protein” (GFAP); anti-oligodendrocytes “proteolipid protein” (PLP) and anti-neuronal neuron-market (NeuN). After washing with PBS (phosphate buffered saline), they were incubated with the Cy2-conjugated secondary antibody for 2 hours at room temperature and avoiding light.
# Finally, the brain slices were washed and mounted on Flouromount G mounting medium and observed directly by the laser-scanning confocal microscope (Nikon Eclipse Ti). Consecutive images were taken with 40× target at 1 μm intervals sequentially with two lasers (Argon, 488 nm and Helium/Neon, 543 nm). In FIG. 1, representative images of mast cells (1.A, C), microglia (1.E, F), astrocytes (1.1, K), oligodendrocytes (1.M, O) and neurons (1.Q, S) and Etd-uptake of PTZ-induced control mice and mice (1.B, D, 1.F, H, 1.J, L, 1.N, P, 1.R, T).
# The mean data of ethidium uptake was normalized to the control condition (dotted line) of each cell type. […] The results obtained were expressed as the mean±SEM. Samples were determined using the Student's t-test (*p<0.05).
# [7] = test system: glial hemichannels; experiment: Application of PTZ to brain slices; format: cell-based; conditions: PTZ applied to brain slices
# [8] = PTZ (70 mg/kg) without molecule D4
structure (smiles),measurement,setting,value
"CC1(C)[C@@H](OC(=O)CCC(=O)O)CC[C@]2(C)[C@H]3C(=O)C=C4[C@@H]5C[C@@](C)(C(=O)O)CC[C@]5(C)CC[C@@]4(C)[C@]3(C)CC[C@@H]12 [Carbenoxolone, carbenoxolone]",PTZ-induced ethidium uptake,[1]; Cbx 10 μM,block the uptake of ethidium
same,PTZ-induced ethidium uptake,[1]; Cbx 100 μM,block the uptake of ethidium
same,PTZ-induced hemichannel and channel activity,"[1]; FIG. 3 legend, macroglia and neurons",blocks hemispheric activity formed by PTZ-induced connexins and channels
"O=C(OC(C(=O)c1ccc(Cl)cc1)c1ccccc1)c1ccc2ccccc2n1 (centres unmarked) [Molecule D4, 2-(4-chlorophenyl)-2-oxo-1-phenylethyl quinoline-2-carboxylate]",Mortality,[2]; 72 hours observation,zero
same,observable side effects,"[2]; 72 hours observation, 2000 mg/kg",no observed side effects; also recorded: no observable side effects
same,"supervision protocol score (weight loss, posture, spontaneous behavior)","[2]; 72 hours, score 0-3 is normal",zero
same,PTZ-induced hemichannel activity (ethidium uptake),[3],blocks the activity of hemichannels formed by PTZ-induced connexin in brain cells; also recorded: not positive to Etd; also recorded: blocks PTZ-induced hemichannel activity and basal activation
same,Animal Mortality,[4]; Molecule D4 (2 mg/kg) prior to PTZ (70 mg/kg),zero
"C1CCc2nnnn2CC1 [PTZ, Pentylenetetrazole]",% Mortality,[5]; PTZ 65 mg/kg i.p. single dose,0%
same,Eliptogenic Episode,[5]; PTZ 65 mg/kg i.p. single dose,No
same,Mortality,[5]; PTZ 65 mg/kg i.p. single dose,0/3
same,% Mortality,[5]; PTZ 70 mg/kg i.p. single dose,20%
same,Eliptogenic Episode,[5]; PTZ 70 mg/kg i.p. single dose,induces convulsions and Yes
same,Mortality,[5]; PTZ 70 mg/kg i.p. single dose,without being lethal and 3/15
same,% Mortality,[5]; PTZ 75 mg/kg i.p. single dose,50%
same,Eliptogenic Episode,[5]; PTZ 75 mg/kg i.p. single dose,Yes
same,Mortality,[5]; PTZ 75 mg/kg i.p. single dose,2/4
same,% Mortality,[5]; PTZ 80 mg/kg i.p. single dose,100%
same,Eliptogenic Episode,[5]; PTZ 80 mg/kg i.p. single dose,Yes
same,Mortality,[5]; PTZ 80 mg/kg i.p. single dose,3/3
same,% Mortality,[5]; PTZ 90 mg/kg i.p. single dose,100%
same,Eliptogenic Episode,[5]; PTZ 90 mg/kg i.p. single dose,Yes
same,Mortality,[5]; PTZ 90 mg/kg i.p. single dose,3/3
same,time to develop seizures post-administration,[5]; PTZ-treated mice,≤ 10 min
same,behaviour in the hours after the seizures,"[5]; PTZ-treated mice, period of several hours",very low motor activity and sporadic contractions
same,epileptogenic episodes,[5]; higher doses (>100 mg/kg),induce epileptogenic episodes
same,mortality rate,"[5]; higher doses (>100 mg/kg), at 5 min after administration",100%
same,epileptogenic episodes,[5]; lower dose (<65 mg/kg),does not induce evident epileptogenic episodes
same,hemichannel activity (ethidium uptake) in brain slices,[6]; versus control mice,induces activity of connexin hemichannels in brain cells; also recorded: positive for high activity of hemichannels; also recorded: positive for Etd fluorescence
same,hemichannel activity (ethidium uptake normalized to control),"[6]; astrocytes and oligodendrocytes, first (FIG. 2.A)",increases the activity of the hemichannels
same,hemichannel activity (ethidium uptake normalized to control),"[6]; mast cells, microglia and neurons, after 30 min (FIG. 2.B and C)",increases the activity of the hemichannels
same,opening of glial hemichannels,[7],induced the opening of glial hemichannels
same,% Mortality,[4]; [8],20%
same,Animal Mortality,[4]; [8],3/15
"O=C1NC(=O)C(c2ccccc2)(c2ccccc2)N1 [phenytoin, Phenytoin]",prevention of PTZ-induced seizures,"[4]; phenytoin treatment, after 10 minutes of treatment",does not prevent PTZ-induced seizures
